Several values for one entry are separate records, joined by “and”; a condition that tells them apart may be missing. Identical values can stand only once. Toxic doses and inconclusive results are not listed. Cut-off read from the data, not from the text of the source: active = T/C of 150% or more; inactive = T/C below 125%.
Tested on: L1210 leukemia ip in BDF1 mice, survival T/C
Assay: NCI In Vivo Anticancer Drug Screen. Data for tumor model L1210 Leukemia (intraperitoneal) in B6D2F1 (BDF1) mice
Details: endpoint: mean survival time, higher = longer survival
Procedure, shortened: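 Each compound was tested against a transplantable tumor grown in mice. The endpoint was survival, with treated animals benchmarked against vehicle controls as a simple ratio.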

[1] = dose: 100.0 mg/kg/injection, schedule: Q01DX001 (ip), vehicle: saline
[2] = dose: 200.0 mg/kg/injection, schedule: Q01DX001 (ip), vehicle: saline
[3] = dose: 400.0 mg/kg/injection, schedule: Q01DX001 (ip), vehicle: saline
[4] = dose: 100.0 mg/kg/injection, schedule: Q04DX003 (ip), vehicle: saline with Tween-80
[5] = dose: 200.0 mg/kg/injection, schedule: Q04DX003 (ip), vehicle: saline with Tween-80
[6] = dose: 400.0 mg/kg/injection, schedule: Q04DX003 (ip), vehicle: saline with Tween-80
[7] = dose: 100.0 mg/kg/injection, schedule: Q04DX003 (ip), vehicle: Klucel (hydroxypropylcellulose) (HPC)
[8] = dose: 200.0 mg/kg/injection, schedule: Q04DX003 (ip), vehicle: Klucel (hydroxypropylcellulose) (HPC)
[9] = dose: 400.0 mg/kg/injection, schedule: Q04DX003 (ip), vehicle: Klucel (hydroxypropylcellulose) (HPC)
[10] = dose: 50.0 mg/kg/injection, schedule: Q01DX001 (ip), vehicle: carboxymethylcellulose (CMC)
[11] = dose: 100.0 mg/kg/injection, schedule: Q01DX001 (ip), vehicle: carboxymethylcellulose (CMC)
[12] = dose: 200.0 mg/kg/injection, schedule: Q01DX001 (ip), vehicle: carboxymethylcellulose (CMC)
[13] = dose: 400.0 mg/kg/injection, schedule: Q01DX001 (ip), vehicle: carboxymethylcellulose (CMC)
[14] = dose: 25.0 mg/kg/injection, schedule: Q04DX002 (ip), vehicle: saline with Tween-80
[15] = dose: 50.0 mg/kg/injection, schedule: Q04DX002 (ip), vehicle: saline with Tween-80
[16] = dose: 50.0 mg/kg/injection, schedule: Q01DX001 (ip), vehicle: saline

Measured: T/C

CCS(=O)(=O)c1ccc(NC(=O)OC2CCCC2)cc1
inactive: dose: 100.0 mg/kg/injection, schedule: Q01DX001 (ip), vehicle: other 100 % of control | dose: 200.0 mg/kg/injection, schedule: Q01DX001 (ip), vehicle: other 96 % of control | dose: 400.0 mg/kg/injection, schedule: Q01DX001 (ip), vehicle: other 89 % of control

CC(=O)CC(=O)NCCN1CCN(C(=O)CC(C)=O)CC1
inactive: [1] 93 % of control | [2] 101 % of control | [3] 98 % of control

CC(=O)Oc1cc([N+](=O)[O-])ccc1C(=O)O
inactive: [4] 96 % of control | [5] 91 % of control | [6] 94 % of control

O=[N+]([O-])c1ccc(Cl)c2nonc12
inactive: dose: 1.65 mg/kg/injection, schedule: Q04DX002 (ip), vehicle: Klucel (hydroxypropylcellulose) (HPC) 89 % of control | dose: 3.12 mg/kg/injection, schedule: Q04DX002 (ip), vehicle: Klucel (hydroxypropylcellulose) (HPC) 92 % of control | dose: 6.25 mg/kg/injection, schedule: Q04DX002 (ip), vehicle: Klucel (hydroxypropylcellulose) (HPC) 94 % of control

C1=CN2CCCN3C=CC=c4ccc(c2c43)=C1
inactive: dose: 7.5 mg/kg/injection, schedule: Q01DX009 (ip), vehicle: saline 100 % of control | dose: 15.0 mg/kg/injection, schedule: Q01DX009 (ip), vehicle: saline 98 % of control

O=C(Nc1ccc(F)c([N+](=O)[O-])c1)Nc1cc([N+](=O)[O-])ccc1F
inactive: [7] 96 % of control | [8] 93 % of control | [9] 101 % of control

O=c1ccc2cc(Cl)ccc2o1
inactive: [10] 98 % of control | [11] 98 % of control | [12] 93 % of control | [13] 98 % of control

COc1ccc(C(=Nc2ccccc2)C(=Nc2ccccc2)c2ccc(OC)cc2)cc1
inactive: [4] 88 % of control | [5] 89 % of control | [6] 91 % of control

Cc1[nH]c(=S)[nH]c(=O)c1CCC(C)C
inactive: [7] 113 % of control | [8] 100 % of control | [9] 106 % of control

COc1ccc2c(c1C)OC(C)C2=O (stereo unspecified)
inactive: dose: 100.0 mg/kg/injection, schedule: Q01DX009 (ip), vehicle: Klucel (hydroxypropylcellulose) (HPC) 93 % of control | [7] 101 % of control | dose: 200.0 mg/kg/injection, schedule: Q01DX009 (ip), vehicle: Klucel (hydroxypropylcellulose) (HPC) 92 % of control | [8] 104 % of control | dose: 400.0 mg/kg/injection, schedule: Q01DX009 (ip), vehicle: Klucel (hydroxypropylcellulose) (HPC) 104 % of control | [9] 97 % of control

O=C(CCN1CC1)NCCCCCCNC(=O)CCN1CC1
inactive: [7] 92 % of control | [8] 90 % of control | [9] 86 % of control

S=C1SCN(c2ccccc2)CN1c1ccccc1
inactive: [4] 88 % of control | [5] 88 % of control

CCOC(=O)c1nc(SC)n(Cc2ccccc2)c1C(=O)OCC
inactive: [14] 94 % of control and 103 % of control | [15] 106 % of control and 91 % of control | dose: 100.0 mg/kg/injection, schedule: Q01DX001 (ip), vehicle: saline with Tween-80 95 % of control and 98 % of control | [4] 99 % of control | dose: 200.0 mg/kg/injection, schedule: Q01DX001 (ip), vehicle: saline with Tween-80 102 % of control and 91 % of control | [5] 100 % of control | dose: 400.0 mg/kg/injection, schedule: Q01DX001 (ip), vehicle: saline with Tween-80 95 % of control and 91 % of control | dose: 400.0 mg/kg/injection, schedule: Q04DX002 (ip), vehicle: saline with Tween-80 94 % of control and 101 % of control | [6] 99 % of control

CCN(CC)C(=S)SC(C)C(=O)OC (stereo unspecified)
inactive: dose: 100.0 mg/kg/injection, schedule: Q04DX002 (ip), vehicle: Klucel (hydroxypropylcellulose) (HPC) 96 % of control | dose: 200.0 mg/kg/injection, schedule: Q04DX002 (ip), vehicle: Klucel (hydroxypropylcellulose) (HPC) 107 % of control | dose: 400.0 mg/kg/injection, schedule: Q04DX002 (ip), vehicle: Klucel (hydroxypropylcellulose) (HPC) 103 % of control

CSc1ncc(Br)c(Cl)n1
inactive: dose: 5.0 mg/kg/injection, schedule: Q01DX001 (ip), vehicle: carboxymethylcellulose (CMC) 95 % of control | dose: 10.0 mg/kg/injection, schedule: Q01DX001 (ip), vehicle: carboxymethylcellulose (CMC) 98 % of control | dose: 20.0 mg/kg/injection, schedule: Q01DX001 (ip), vehicle: carboxymethylcellulose (CMC) 95 % of control | dose: 40.0 mg/kg/injection, schedule: Q01DX001 (ip), vehicle: carboxymethylcellulose (CMC) 93 % of control | dose: 80.0 mg/kg/injection, schedule: Q01DX001 (ip), vehicle: carboxymethylcellulose (CMC) 93 % of control

CC(/C=N/NC(N)=S)=N\NC(N)=S
inactive: dose: 12.5 mg/kg/injection, schedule: Q01DX Z (oral), vehicle: carboxymethylcellulose (CMC) 106 % of control | dose: 25.0 mg/kg/injection, schedule: Q01DX Z (oral), vehicle: carboxymethylcellulose (CMC) 113 % of control | [10] 97 % of control | dose: 50.0 mg/kg/injection, schedule: Q01DX Z (ip), vehicle: carboxymethylcellulose (CMC) 95 % of control | dose: 50.0 mg/kg/injection, schedule: Q01DX Z (oral), vehicle: carboxymethylcellulose (CMC) 113 % of control | [11] 101 % of control | dose: 100.0 mg/kg/injection, schedule: Q01DX Z (ip), vehicle: carboxymethylcellulose (CMC) 100 % of control | dose: 100.0 mg/kg/injection, schedule: Q01DX Z (oral), vehicle: carboxymethylcellulose (CMC) 124 % of control | [12] 91 % of control | dose: 200.0 mg/kg/injection, schedule: Q01DX Z (ip), vehicle: carboxymethylcellulose (CMC) 103 % of control | [13] 97 % of control | dose: 400.0 mg/kg/injection, schedule: Q01DX Z (ip), vehicle: carboxymethylcellulose (CMC) 103 % of control

O=C(CCCC(=O)N/N=C/c1ccc(Cl)cc1Cl)N/N=C\c1ccc(Cl)cc1Cl
inactive: [16] 97 % of control | [1] 97 % of control | [2] 93 % of control | [3] 97 % of control

O=C(O)CC1(C(=O)O)CCN(Cc2ccccc2)CC1
inactive: [7] 103 % of control | [8] 102 % of control | [9] 100 % of control

CN(C)CCNS(C)(=O)=O
inactive: dose: 100.0 mg/kg/injection, schedule: Q01DX009 (ip), vehicle: saline 105 % of control | dose: 100.0 mg/kg/injection, schedule: Q04DX003 (ip), vehicle: saline 98 % of control | dose: 200.0 mg/kg/injection, schedule: Q01DX009 (ip), vehicle: saline 105 % of control | dose: 200.0 mg/kg/injection, schedule: Q04DX003 (ip), vehicle: saline 100 % of control | dose: 400.0 mg/kg/injection, schedule: Q01DX009 (ip), vehicle: saline 109 % of control | dose: 400.0 mg/kg/injection, schedule: Q04DX003 (ip), vehicle: saline 100 % of control

CCOC(=O)C(=O)c1cnc2c(OC)nn(O)cc1-2
inactive: dose: 12.5 mg/kg/injection, schedule: Q04DX002 (ip), vehicle: saline with Tween-80 102 % of control | [14] 109 % of control | [15] 102 % of control

COn1c(=O)c2ccccc2n(C)c1=O
inactive: dose: 62.5 mg/kg/injection, schedule: Q01DX009 (ip), vehicle: other 96 % of control | dose: 125.0 mg/kg/injection, schedule: Q01DX009 (ip), vehicle: other 94 % of control | dose: 250.0 mg/kg/injection, schedule: Q01DX009 (ip), vehicle: other 98 % of control

Cc1cc(Nc2ccc(C)c(C)c2)nc(N)n1
inactive: dose: 100.0 mg/kg/injection, schedule: Q01DX Z (ip), vehicle: methylcellulose (MC) 108 % of control

COc1ccc(C(=O)/C=C\c2ccc(OC)cc2O)cc1
inactive: [16] 100 % of control | [1] 103 % of control | [2] 97 % of control | [3] 103 % of control

C=CC[n+]1ccccc1Cc1ccccc1
inactive: dose: 6.25 mg/kg/injection, schedule: Q01DX009 (ip), vehicle: saline 100 % of control | dose: 12.5 mg/kg/injection, schedule: Q01DX009 (ip), vehicle: saline 108 % of control | dose: 12.5 mg/kg/injection, schedule: Q04DX003 (ip), vehicle: saline 104 % of control | dose: 25.0 mg/kg/injection, schedule: Q01DX009 (ip), vehicle: saline 103 % of control | dose: 25.0 mg/kg/injection, schedule: Q04DX003 (ip), vehicle: saline 107 % of control

Source: PubChem BioAssay AID248 (DTP/NCI, 2004)
